Measured values taken from patent publication US11045464B2, “Parenteral formulations of dopamine agonists” (VeroScience LLC, priority 2007, dated 2021).

Assay: Stability of SKF-38393 in solution
Assay type: physicochemical
Text: Formulation 22S was a combination of […], employing the 11S base formulation with the two active agents. […] A short study has been run to ensure the stability of SKF-38393. […] In contrast, in alcohol solution, the API decomposes rapidly, with >5% of the API already lost within the first hour.

API lost (decomposition) (in alcohol solution, within the first hour): > 5% | decomposition of SKF-38393 (in water buffered by the acidic acid, within 12 h): no decomposition
Compound: Oc1cc2c(cc1O)C(c1ccccc1)CNCC2 (centres unmarked) [SKF-38393]
